# Laboratory results from patent US7579006B2, “Method of treating immune pathologies with low dose estrogen” (Oregon Health and Science University, priority 2000, dated 2009).
# “And” between values parts separate entries of the source, which are not always exact repeats. Equal values may be shown once.
# Assays:
# [1] = test system: female SJL mice; assay: EAE induced with PLP 139-151 in female SJL mice (clinical scores, spinal cord histopathology); type: in vivo; conditions: for Demyelinated foci/section / Inflammatory foci/section: spinal cord at peak of disease
# [2] = test system: draining lymph node (LN) cells; assay: MOG 35-55 stimulated proliferation of draining lymph node cells; type: in vivo; conditions: WT and cytokine deficient mice, 2.5 mg pellet
# Protocol: Proliferation assay. Proliferation assays were performed on draining lymph node (DLN) and spleen (SP) cells essentially as described in Examples I and II, using MOG 35-55 as the test antigen. […] Proliferation of draining lymph node (LN) cells from either untreated or E2 treated mice was measured to determine if E2 could alter the ability of T lymphocytes to recognize and respond to the immunizing antigen. LN cells were isolated from three representative mice for each group and the cells pooled prior to stimulation with MOG 35-55 for 72 hr.
# [3] = test system: B10.PL mice; assay: EAE induced with MBP Ac1-11 in B10.PL mice; type: in vivo; conditions: for inhibition of EAE: B10.PL females
# [4] = test system: spinal cord mononuclear cells; assay: Mononuclear cell infiltration into spinal cords of Tg females with EAE; type: in vivo, mice; conditions: 0.36 mg pellet
# Protocol: Induction of active EAE. EAE was induced, and disease assessed, essentially as described in Example II. Disease onset was defined as the first day of clinical signs, peak—acute phase of EAE—as maximum severity of clinical signs (day 16-17 after immunization with encephalitogenic peptide) and recovery as day 28 post-immunization, when clinical severity of EAE was diminished. The cumulative disease index (CDI) was determined for each mouse by summing the daily clinical scores. Mice selected from control, ovariectomized, and 17β-estradiol treated groups were sacrificed and spinal cords were isolated by insufflation and frozen at −70 C or mononuclear cells were isolated over a Percoll step gradient and counted as described in Offner et al., J. Immunol. 161:2178-2186 (1998). Lymph nodes (LN) or spleens (SPL) were removed surgically and passed through a wire mesh screen to obtain a single-cell suspension. Frozen spinal cords were subsequently thawed and evaluated for expression of chemokines, chemokine receptors and cytokines by the RNase protection assay.
# [5] = test system: IFN-γ KO mice; assay: EAE induced with MOG 35-55 in IFN-γ KO mice (clinical, histopathology); type: in vivo; conditions: 2.5 mg pellet
# Protocol: Estrogen treatment. Sixty-day release pellets containing 2.5 mg of 17β-estradiol (E2) or vehicle were implanted subcutaneously (s.c) in the scapular region behind the neck using a 12-gauge trochar as described by the manufacturer (Innovative Research of America, Sarasota, Fla.). The mice were implanted one week prior to immunization with MOG 35-55. The concentration of E2 expected in the serum is between 1,500-2,000 pg/ml, which is approximately 5 times less than the levels found during pregnancy.
# Induction of EAE. C57BL/6 and cytokine deficient mice were inoculated s.c in the flanks with 0.2 ml of an emulsion containing 200 μg of MOG 35-55 in saline and an equal volume of complete Freund's Adjuvant (CFA) containing 400 μg of Mycobacterium tuberculosis H37RA (Difco Laboratories, Detroit, Mich.). Disease induction required i.v. administration of pertussis toxin on the day of immunization (25 ng/mouse) and 2 days later (67 ng/mouse). The mice were assessed daily for clinical signs of EAE according to the 7 point scale described in Example I.
# Histopathology. Histopathologic assessment of spinal column section was performed essentially as described in Example I, except that sections were stained with either luxol fast blue-periodic acid schiff-hematoxylin or silver nitrate prior to analysis.
# Statistical analysis. Significant differences in incidence and mortality between untreated and E2 treated mice were assessed by Chi-square analysis. Difference in onset was determined using the two-tailed Student t test. Differences in peak score and cumulative disease index (CDI) were assessed by the Mann-Whitney test. Statistical significance of the frequency of cytokine secreting cells was analyzed using Student's t test for comparisons of two means. Differences in the expression of chemokine and cytokine mRNA were also determined using the Student t test. Values of p<0.05 were considered significant.
# [6] = test system: Vβ8.2+/CD4+ T CELLS; assay: Flow cytometry of adhesion and activation antigens on LN Vβ8.2+/CD4+ T cells; type: in vivo, mice; conditions: E2 treated
# Protocol: The regulation of cell adhesion molecules is another possible mechanism by which estrogen treatment controls the migration of inflammatory cells into the CNS. The expression of cell surface adhesion and activation/memory antigens was determined by staining with fluorochrome-labeled antibodies and flow cytometry. No significant differences in the expression of VLA-4, CD44, or CD62L were detected between LN cells from E2 versus control mice with EAE (Table 18). Furthermore, no differences in activation markers (CD69, CD25, FASL, CD40L, CD28) were seen.
# [7] = single experiments (Exp #1-#2), listed as E2
# [8] = single experiments (Exp #1-#3), listed as E2
structure (smiles),measurement,setting,value
C[C@]12CC[C@@H]3c4ccc(O)cc4CC[C@H]3[C@@H]1CC[C@@H]2O [17β-estradiol],CDI (cumulative disease index),[1]; 0.025 mg/pellet (diestrus),19.2 ± 10.0
same,Incidence,[1]; 0.025 mg/pellet (diestrus),15/18
same,Incidence (%),[1]; 0.025 mg/pellet (diestrus),(83%)
same,Onset,[1]; 0.025 mg/pellet (diestrus),15.8 ± 3.5 days
same,Peak (disease score),[1]; 0.025 mg/pellet (diestrus),3.6 ± 1.3
same,Relapse,[1]; 0.025 mg/pellet (diestrus),5/9
same,Relapse (%),[1]; 0.025 mg/pellet (diestrus),(56%)
same,CDI (cumulative disease index),[1]; 0.1 mg/pellet (diestrus),8.9 ± 3.4
same,Incidence,[1]; 0.1 mg/pellet (diestrus),12/19
same,Incidence (%),[1]; 0.1 mg/pellet (diestrus),(63%)
same,Onset,[1]; 0.1 mg/pellet (diestrus),14.5 ± 2.0 days
same,Peak (disease score),[1]; 0.1 mg/pellet (diestrus),2.0 ± 0.9
same,Relapse,[1]; 0.1 mg/pellet (diestrus),2/9
same,Relapse (%),[1]; 0.1 mg/pellet (diestrus),(22%)
same,Demyelinated foci/section,[1]; 0.36 mg pellet,0.5 ± 0.3 foci/section
same,Inflammatory foci/section,[1]; 0.36 mg pellet,1.3 ± 0.8 foci/section
same,CDI (cumulative disease index),[1]; 0.36 mg/pellet (estrus),9.8 ± 1.9
same,Incidence,[1]; 0.36 mg/pellet (estrus),15/19
same,Incidence (%),[1]; 0.36 mg/pellet (estrus),(79%)
same,Onset,[1]; 0.36 mg/pellet (estrus),15.1 ± 1.3 days
same,Peak (disease score),[1]; 0.36 mg/pellet (estrus),2.5 ± 0.6
same,Relapse,[1]; 0.36 mg/pellet (estrus),2/9
same,Relapse (%),[1]; 0.36 mg/pellet (estrus),(22%)
same,Demyelinated foci/section,[1]; 2.5 mg pellet,0.5 ± 0.4 foci/section
same,Inflammatory foci/section,[1]; 2.5 mg pellet,0.6 ± 0.8 foci/section
same,CDI (cumulative disease index),[1]; 2.5 mg/pellet (pregnancy),7.5 ± 7.9
same,Incidence,[1]; 2.5 mg/pellet (pregnancy),4/10
same,Incidence (%),[1]; 2.5 mg/pellet (pregnancy),(40%)
same,Onset,[1]; 2.5 mg/pellet (pregnancy),13.8 ± 0.5 days
same,Peak (disease score),[1]; 2.5 mg/pellet (pregnancy),2.0 ± 2.1
same,Relapse,[1]; 2.5 mg/pellet (pregnancy),0/4
same,Relapse (%),[1]; 2.5 mg/pellet (pregnancy),(0%)
same,comparison of E2 and E3 in incidence or severity of EAE,"[1]; Fisher exact test, same animal model",equally protective
same,LN proliferation response to MOG 35-55,[2],no effect
same,CDT,[3]; 0.18 mg/pellet (diestrus),5.8 ± 2.9
same,Incidence,[3]; 0.18 mg/pellet (diestrus),3/6
same,Incidence (%),[3]; 0.18 mg/pellet (diestrus),50%
same,Onset,[3]; 0.18 mg/pellet (diestrus),25.7 ± 1.2 days
same,Peak (disease score),[3]; 0.18 mg/pellet (diestrus),1.7 ± 0.92
same,CDT,[3]; 0.36 mg/pellet (estrus),13.5 ± 6.2
same,Incidence,[3]; 0.36 mg/pellet (estrus),15/26
same,Incidence (%),[3]; 0.36 mg/pellet (estrus),58%
same,Onset,[3]; 0.36 mg/pellet (estrus),26.5 ± 1.3 days
same,Peak (disease score),[3]; 0.36 mg/pellet (estrus),2.61 ± 0.60
same,CDT,[3]; 2.50 mg/pellet (pregnancy),0 ± 0
same,Incidence,[3]; 2.50 mg/pellet (pregnancy),0/15
same,Incidence (%),[3]; 2.50 mg/pellet (pregnancy),0%
same,Onset,[3]; 2.50 mg/pellet (pregnancy),0 ± 0 days
same,Peak (disease score),[3]; 2.50 mg/pellet (pregnancy),0 ± 0
same,CDT,[3]; 15.0 mg/pellet (high),1.4 ± 3.8
same,Incidence,[3]; 15.0 mg/pellet (high),2/8
same,Incidence (%),[3]; 15.0 mg/pellet (high),25%
same,Onset,[3]; 15.0 mg/pellet (high),29 ± 1.4 days
same,Peak (disease score),[3]; 15.0 mg/pellet (high),2.0 ± 1.0
same,inhibition of EAE,[3]; 2.5 mg pellets,essentially complete inhibition of EAE
same,inhibition of EAE,[3]; 15 mg pellets,essentially complete inhibition of EAE
same,inhibition of EAE,[3]; estrus (0.36 mg pellets) to diestrus levels (0.10 mg pellets),substantial inhibition
same,Mean clinical score at time of cord removal,[4],1.3
same,Number of cells/cord,[4],10000 cells/cord
same,prevention of infiltration of mononuclear cells into spinal cords,[4],approximately 60%
same,Inflammatory foci/section,"[5]; IFN-γKO, spinal cord",0.0 ± 0.0 Foci/Section
same,CDI,[5]; IFNγ KO,19.3 ± 15.9
same,Incidence,[5]; IFNγ KO,8/10
same,Mortality,[5]; IFNγ KO,1/10
same,Onset,[5]; IFNγ KO,21.8 ± 2.7
same,Peak Score,[5]; IFNγ KO,4.5 ± 1.2
same,"CD28, % of Vβ8.2+/CD4+ T CELLS",[6]; Exp #1,4.5%
same,"CD40L, % of Vβ8.2+/CD4+ T CELLS",[6]; Exp #1,0%
same,"CD62lo, % of Vβ8.2+/CD4+ T CELLS",[6]; Exp #1,47.3%
same,"CD25, % of Vβ8.2+/CD4+ T CELLS, mean",[6]; mean of experiments,7.4 ± 4.3%
same,"CD44hi, % of Vβ8.2+/CD4+ T CELLS, mean",[6]; mean of experiments,55.8 ± 13.8%
same,"CD69, % of Vβ8.2+/CD4+ T CELLS, mean",[6]; mean of experiments,21.6 ± 5.8%
same,"FASL, % of Vβ8.2+/CD4+ T CELLS, mean",[6]; mean of experiments,1.6 ± 2.1%
same,"VLA-4, % of Vβ8.2+/CD4+ T CELLS, mean",[6]; mean of experiments,57.5 ± 7.4%
same,"CD25, % of Vβ8.2+/CD4+ T CELLS",[6]; [7],4.3% and 10.4%
same,"CD69, % of Vβ8.2+/CD4+ T CELLS",[6]; [7],17.5% and 25.7%
same,"FASL, % of Vβ8.2+/CD4+ T CELLS",[6]; [7],0.1% and 3.1%
same,"CD44hi, % of Vβ8.2+/CD4+ T CELLS",[6]; [8],68.8% and 41.2% and 57.3%
same,"VLA-4, % of Vβ8.2+/CD4+ T CELLS",[6]; [8],64.2% and 58.7% and 49.6%
